Details: Liquid, Vibrating tube method

CCCCCCC [heptane]
Details	mass density [kg/m3]
283.15 K, 101 kPa	692.398
283.15 K, 267.6 kPa	692.646
283.15 K, 550.8 kPa	692.799
283.15 K, 878.6 kPa	693.177
283.15 K, 991.3 kPa	693.192
283.15 K, 2020.2 kPa	694.161
283.15 K, 2914.8 kPa	694.997
283.15 K, 4946.5 kPa	696.597
283.15 K, 7034.8 kPa	698.638
283.15 K, 9021.6 kPa	700.052
283.15 K, 9991.9 kPa	700.869
283.15 K, 11959 kPa	702.48
283.15 K, 15011 kPa	704.783
283.15 K, 18047 kPa	706.965
283.15 K, 20045 kPa	708.637
283.15 K, 22056 kPa	709.841
283.15 K, 25044 kPa	712
283.15 K, 28046 kPa	714.05
283.15 K, 30052 kPa	715.435
283.15 K, 32055 kPa	716.688
283.15 K, 32971 kPa	717.342
283.15 K, 33000 kPa	717.432
283.15 K, 34016 kPa	718.012
283.15 K, 34960 kPa	718.734
283.15 K, 37943 kPa	720.455
283.15 K, 40004 kPa	721.755
283.15 K, 42058 kPa	723.102
283.15 K, 44940 kPa	724.839
283.15 K, 48022 kPa	726.526
283.15 K, 49996 kPa	727.851
283.15 K, 51982 kPa	728.904
283.15 K, 54965 kPa	730.736
283.15 K, 57949 kPa	732.407
283.15 K, 59996 kPa	733.467
283.15 K, 62025 kPa	734.345
283.15 K, 64998 kPa	735.98
283.16 K, 65971 kPa	736.499
288.15 K, 102 kPa	688.224
288.15 K, 391.3 kPa	688.682
288.15 K, 554.4 kPa	688.232
288.15 K, 882.7 kPa	689.214
288.15 K, 989.1 kPa	688.618
288.15 K, 2057.5 kPa	689.559
288.15 K, 2917.8 kPa	690.931
288.15 K, 5041.4 kPa	692.738
288.15 K, 7088.8 kPa	693.96
288.15 K, 9018.6 kPa	695.614
288.15 K, 10040 kPa	696.278
288.15 K, 12072 kPa	698.584
288.15 K, 15001 kPa	700.836
288.15 K, 17968 kPa	703.23
288.15 K, 20068 kPa	704.758
288.15 K, 22020 kPa	705.649
288.15 K, 25002 kPa	707.645
288.15 K, 28026 kPa	709.735
288.15 K, 30035 kPa	711.006
288.15 K, 32084 kPa	712.959
288.15 K, 33050 kPa	713.818
288.15 K, 33096 kPa	713.93
288.15 K, 34036 kPa	714.067
288.15 K, 35077 kPa	714.575
288.15 K, 37993 kPa	716.378
288.15 K, 40041 kPa	717.608
288.15 K, 42023 kPa	718.735
288.15 K, 44979 kPa	720.398
288.15 K, 48045 kPa	723.18
288.15 K, 50068 kPa	724.245
288.15 K, 52032 kPa	724.841
288.15 K, 55077 kPa	726.211
288.15 K, 58004 kPa	729.214
288.15 K, 59988 kPa	729.723
288.15 K, 61974 kPa	731.101
288.15 K, 64942 kPa	731.745
288.15 K, 66025 kPa	732.751
293.15 K, 100.5 kPa	683.714
293.15 K, 825.1 kPa	684.796
293.15 K, 1971.7 kPa	685.978
293.15 K, 3060.6 kPa	686.787
293.15 K, 5011 kPa	688.859
293.15 K, 9042.1 kPa	692.394
293.15 K, 10036 kPa	693.252
293.15 K, 11946 kPa	694.459
293.15 K, 14941 kPa	697.266
293.15 K, 21987 kPa	701.769
293.15 K, 27986 kPa	706.659
293.15 K, 33150 kPa	710.401
293.15 K, 33151 kPa	710.425
293.15 K, 34099 kPa	710.557
293.15 K, 35000 kPa	711.53
293.15 K, 40081 kPa	714.898
293.15 K, 42099 kPa	716.347
293.15 K, 45068 kPa	718.234
293.15 K, 54966 kPa	724.479
293.15 K, 58072 kPa	726.215
293.15 K, 66045 kPa	730.5
293.16 K, 305.2 kPa	684.504
293.16 K, 476.4 kPa	684.708
293.16 K, 1045.2 kPa	685.167
293.16 K, 7096.8 kPa	690.796
293.16 K, 17889 kPa	698.789
293.16 K, 19992 kPa	701.345
293.16 K, 24983 kPa	704.2
293.16 K, 29976 kPa	708.599
293.16 K, 32232 kPa	710.098
293.16 K, 38026 kPa	712.948
293.16 K, 48022 kPa	720.258
293.16 K, 50084 kPa	721.322
293.16 K, 52032 kPa	722.789
293.16 K, 60018 kPa	727.31
293.16 K, 61962 kPa	728.261
293.16 K, 64991 kPa	729.973
298.15 K, 102.3 kPa	679.807
298.15 K, 305.4 kPa	680.336
298.15 K, 854.5 kPa	680.896
298.15 K, 1980.9 kPa	681.933
298.15 K, 3167.8 kPa	682.97
298.15 K, 5067.6 kPa	684.841
298.15 K, 7065.3 kPa	686.383
298.15 K, 10107 kPa	689.119
298.15 K, 20128 kPa	696.696
298.15 K, 22004 kPa	699.062
298.15 K, 25080 kPa	701.29
298.15 K, 33113 kPa	707.026
298.15 K, 33924 kPa	706.971
298.15 K, 38097 kPa	709.948
298.15 K, 40161 kPa	711.975
298.15 K, 42028 kPa	713.324
298.15 K, 45021 kPa	715.087
298.15 K, 48107 kPa	717.001
298.15 K, 50068 kPa	718.317
298.15 K, 55016 kPa	721.123
298.15 K, 57931 kPa	723.027
298.15 K, 59914 kPa	724.031
298.15 K, 62036 kPa	725.393
298.15 K, 65018 kPa	726.954
298.16 K, 493.7 kPa	680.581
298.16 K, 1012.6 kPa	680.891
298.16 K, 9120.9 kPa	688.48
298.16 K, 11970 kPa	689.977
298.16 K, 15220 kPa	693.294
298.16 K, 17984 kPa	694.869
298.16 K, 28040 kPa	703.578
298.16 K, 30089 kPa	704.725
298.16 K, 32034 kPa	706.093
298.16 K, 33093 kPa	706.936
298.16 K, 35217 kPa	707.884
298.16 K, 52020 kPa	719.461
298.16 K, 66118 kPa	727.501
303.15 K, 100.7 kPa	675.559
303.15 K, 304.1 kPa	675.598
303.15 K, 498.9 kPa	675.77
303.15 K, 900.6 kPa	675.904
303.15 K, 979.1 kPa	676.053
303.15 K, 1977.6 kPa	677.27
303.15 K, 4930.4 kPa	680.06
303.15 K, 11975 kPa	686.61
303.15 K, 15044 kPa	689.15
